In patent publication US9156831B2, “Chemical compounds” (ASTRAZENECA AB, priority 2013, dated 2015):

Legend:
[1] = tested on: BT474 xenograft; test: Tumour growth inhibition, BT474 xenograft model; assay type: in vivo, mouse
Procedure: BT474 is an estrogen receptor positive breast tumour cell lines with elevated Her2 expression and carries a mutation in the PIK3CA gene (K111N). Female Swiss athymic nude mice (swiss nu/nu-AZUK) were transplanted subcutaneously with human epithelial breast ductal carcinoma cell line BT474c (derived in AZ from BT474-ATCC HTB-20) tumours passaged in mice. Mice were implanted with 0.36 mg 60 day oestrogen pellet (Innovative Research of America) 24 hours prior to cell implantation. 5×10^6 cells in 50% matrigel (BD Bioscience) were injected s.c. on the left flank of the animals.
(§1) Animals were randomised into groups of 10-15 when tumours reached a volume of ˜200-300 mm^3 and treatment commenced. Animals were dosed for 3-4 weeks by peroral route, with compound in a suitable vehicle at defined doses and schedules. Tumours were measured two-three times weekly by caliper and volume of tumours calculated using elliptical formula (pi/6×width×width×length).

[2] = tested on: HCC70 xenograft; test: Tumour growth inhibition, HCC70 xenograft model; assay type: in vivo, mouse; settings: AZD8186 alone 50 mg/kg BID every day; FIG. 13
Procedure: HCC70 is breast tumour cell line which is deficient in PTEN gene expression. Female Swiss athymic nude mice (swiss nu/nu—AZUK) were transplanted subcutaneously with the breast ductal epithelial tumour cell line HCC70 (ATCC—CRL2315) cells. 1×10^6 cells in 50% matrigel (BD Bioscience) were injected s.c. on the left flank of the animals.
as §1

[3] = target: ATR kinase (Homo sapiens (Human), UniProt Q13535); test: Phospho Chk1 (Ser345) in HT29 cells (ATR cell assay); assay type: cell-based; settings: Test protocol f, one test replicate only
Source text: ATR (Ataxia Telangiectasia+Rad3-related kinase) is a PI3-kinase-related kinase which phosphorylates multiple substrates on serine or threonine residues in response to DNA damage or replication blocks. Chk1, a downstream protein kinase of ATR, plays a key role in DNA damage checkpoint control. Activation of Chk1 involves phosphorylation of Ser317 and Ser345 (the latter regarded as the preferential target for phosphorylation/activation by ATR).
This was a cell based assay to measure inhibition of ATR kinase, by measuring a decrease in phosphorylation of Chk1 (Ser 345) in HT29 cells, following treatment with compound and the UV mimetic 4NQO (Sigma #N8141). HT29 cells (ECACC #85061109) were seeded into 384 well assay plates (Costar #3712) at a density of 6000 cells/well in 40 μl EMEM medium containing 1% L glutamine and 10% FBS and allowed to adhere overnight. The following morning compounds in 100% DMSO were added to assay plates by acoustic dispensing. After 1 hour incubation at 37° C. and 5% CO2, 40 nl of 3 mM 4NQO in 100% DMSO was added to all wells by acoustic dispensing, except minimum control wells which were left untreated with 4NQO to generate a null response control. Plates were returned to the incubator for a further 1 hour. Then cells were fixed by adding 20 μl of 3.7% formaldehyde in PBS solution and incubating for 20 mins at room temperature. Then 20 μl of 0.1% Triton X100 in PBS was added and incubated for 10 minutes at room temperature, to permeabalise cells. Then the plates were washed once with 50 μl/well PBS, using a Biotek EL405 plate washer.
Phospho-Chk1 Ser 345 antibody (Cell Signalling Technology #2348) was diluted 150 fold in PBS containing 0.05% polysorbate/Tween and 15 μl was added to each well and incubated over night at room temperature. The next morning plates were washed three times with 50 μl/well PBS, using a Biotek EL405 plate washer, and then 20 μl of secondary Ab solution, containing 500 fold diluted Alexa Fluor 488 Goat anti-rabbit IgG (Molecular Probes #A-11008) and 0.002 mg/ml Hoeschst dye (Molecular Probes #H-3570), in PBST, was added. After 2 hours incubation at room temperature, the plates were washed three times with 50 μl/well PBS, using a Biotek EL405 plate washer, and plates were then sealed with black plate seals until read. Plates were read using an ArrayScan VTI instrument, using an XF53 filter with 10× objective. A two laser set up was used to analyse nuclear staining with Hoeschst (405 nM) and secondary antibody staining of pChk1 (488 nM).

[4] = target: PI3K-δ (Homo sapiens (Human), UniProt O00329); test: In vitro enzyme inhibition assay (Kinase Glo); assay type: biochemical; settings: Test protocol a; mean of replicates
Procedure: (§2) The inhibition of PI3K-β, PI3K-α, PI3K-γ and PI3K-δ was evaluated in a Kinase Glo based enzyme activity assay using human recombinant enzymes. The assay platform indirectly measured the depletion of ATP after incubation with enzyme, PIP2 substrate, ATP and compound.
(§3) After completion of the enzyme reaction the remaining ATP was used in a secondary enzymatic reaction, where Luciferase converted beetle luciferin into oxyluciferin under the emission of light. A direct relationship existed between the luminescence measured and the ATP remaining in a completed kinase reaction. Therefore, the luminescence was inversely related to the kinase activity.
(§4) Compounds in 100% DMSO were added to assay plates by acoustic dispensing. PI3K enzyme was added in a Tris buffer (50 mM Tris pH7.4, 0.05% CHAPS, 2.1 mM DTT, and 10 mM magnesium chloride) and allowed to preincubate with compound for 20 minutes prior to addition of substrate solution containing PIP2 and ATP. The enzyme reaction was stopped after 80 minutes by the addition of Kinase Glo detection solution containing Lucferin and Luciferase (from Kinase Glo® Plus Luminecent Kinase Assay kit (Promega #V3772). Plates were left for 30 minutes at room temperature then read on a Pherastar Instrument with a standard Luminescence filter block. The final concentration of DMSO, ATP and PIP2 in the assay were, 1%, 8 μM, and 80 μM respectively.
(§5) IC50 values were calculated using a log curve fitting to a non-linear regression fit.

[5] = target: PI3K-β (Homo sapiens (Human), UniProt P42338); test: In vitro enzyme inhibition assay (Kinase Glo); assay type: biochemical; settings: Test protocol a; mean of replicates
Procedure: as §2, §3, §4, §5

[6] = target: PI3K-α (Homo sapiens (Human), UniProt P42336, K111N); test: Phosphorylated AKT (Thr308) in BT474 cells (PI3K-α cell assay); assay type: cell-based; settings: Test protocol c, mean of replicates
[7] = target: PI3K-α (Homo sapiens (Human), UniProt P42336); test: In vitro enzyme inhibition assay (Kinase Glo); assay type: biochemical; settings: Test protocol a; mean of replicates
Procedure: as §2, §3, §4, §5

[8] = tested on: MCF7 xenograft; test: Tumour growth inhibition, MCF7 xenograft model; assay type: in vivo, mouse; settings: olaparib alone 100 mg/kg QD every day; FIG. 12
Procedure: MCF7 is an estrogen receptor positive breast tumour cell line carrying a mutation in the PIKC3CA gene (E545K). […] SCID mice (AZ UK) were transplanted subcutaneously (s.c.) with human breast adenocarcinoma cell line MCF7 (ICRF London) to determine anti-tumour activity of PI3 kinase inhibitors. Mice were implanted with a 0.5 mg 21 day oestrogen pellet (Innovative Research of America) 24 hours prior to cell implantation. 5×10^6 cells in 50% matrigel (BD Bioscience) were injected s.c. on the left flank of the animals.
as §1

Sequence of PI3K-δ (O00329 whole entry): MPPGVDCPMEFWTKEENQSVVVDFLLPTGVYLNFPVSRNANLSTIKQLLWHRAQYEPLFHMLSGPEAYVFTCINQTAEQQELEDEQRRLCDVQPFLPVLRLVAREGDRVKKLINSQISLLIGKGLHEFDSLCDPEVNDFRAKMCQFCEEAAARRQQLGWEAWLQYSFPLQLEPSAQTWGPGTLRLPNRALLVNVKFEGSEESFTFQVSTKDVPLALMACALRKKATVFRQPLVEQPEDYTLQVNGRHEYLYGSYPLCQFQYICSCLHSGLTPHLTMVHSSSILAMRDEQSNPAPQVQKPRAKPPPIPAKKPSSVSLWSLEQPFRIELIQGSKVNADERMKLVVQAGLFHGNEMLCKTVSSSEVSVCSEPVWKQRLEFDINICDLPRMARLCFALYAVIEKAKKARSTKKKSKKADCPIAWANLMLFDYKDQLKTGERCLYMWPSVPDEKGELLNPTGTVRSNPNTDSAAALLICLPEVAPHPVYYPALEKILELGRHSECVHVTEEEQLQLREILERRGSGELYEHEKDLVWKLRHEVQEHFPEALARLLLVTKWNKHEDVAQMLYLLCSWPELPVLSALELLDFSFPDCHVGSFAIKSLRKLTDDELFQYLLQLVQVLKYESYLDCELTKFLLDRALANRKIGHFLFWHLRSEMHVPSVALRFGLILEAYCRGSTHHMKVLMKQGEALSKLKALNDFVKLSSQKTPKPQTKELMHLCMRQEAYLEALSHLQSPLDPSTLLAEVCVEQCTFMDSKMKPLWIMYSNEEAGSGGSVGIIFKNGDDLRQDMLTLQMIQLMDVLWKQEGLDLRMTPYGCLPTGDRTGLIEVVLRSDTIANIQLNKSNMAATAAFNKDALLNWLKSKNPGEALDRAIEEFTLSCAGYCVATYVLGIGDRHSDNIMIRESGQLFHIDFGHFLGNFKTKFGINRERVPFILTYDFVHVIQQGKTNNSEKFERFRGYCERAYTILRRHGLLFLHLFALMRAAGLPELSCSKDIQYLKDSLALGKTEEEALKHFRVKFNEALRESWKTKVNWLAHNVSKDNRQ
Sequence of PI3K-δ (P27986 whole entry partner): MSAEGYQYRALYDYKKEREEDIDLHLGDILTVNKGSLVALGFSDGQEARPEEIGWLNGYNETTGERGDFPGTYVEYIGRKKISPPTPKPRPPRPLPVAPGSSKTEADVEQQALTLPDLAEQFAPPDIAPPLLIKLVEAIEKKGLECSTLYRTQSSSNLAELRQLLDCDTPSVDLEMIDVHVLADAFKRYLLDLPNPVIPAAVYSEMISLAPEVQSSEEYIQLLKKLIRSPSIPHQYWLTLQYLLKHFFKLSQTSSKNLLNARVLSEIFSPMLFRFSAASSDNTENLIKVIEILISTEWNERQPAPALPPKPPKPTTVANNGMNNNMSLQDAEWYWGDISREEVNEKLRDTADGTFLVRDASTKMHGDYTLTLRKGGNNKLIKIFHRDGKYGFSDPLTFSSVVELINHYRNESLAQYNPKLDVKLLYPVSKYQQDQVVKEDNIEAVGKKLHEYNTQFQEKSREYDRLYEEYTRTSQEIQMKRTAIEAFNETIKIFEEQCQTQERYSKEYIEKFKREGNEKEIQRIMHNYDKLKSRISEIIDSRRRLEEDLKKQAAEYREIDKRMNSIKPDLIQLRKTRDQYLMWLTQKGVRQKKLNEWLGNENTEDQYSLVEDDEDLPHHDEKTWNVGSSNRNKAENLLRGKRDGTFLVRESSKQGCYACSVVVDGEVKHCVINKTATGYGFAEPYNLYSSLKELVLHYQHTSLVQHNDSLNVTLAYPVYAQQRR
Sequence of PI3K-β (P42338 whole entry): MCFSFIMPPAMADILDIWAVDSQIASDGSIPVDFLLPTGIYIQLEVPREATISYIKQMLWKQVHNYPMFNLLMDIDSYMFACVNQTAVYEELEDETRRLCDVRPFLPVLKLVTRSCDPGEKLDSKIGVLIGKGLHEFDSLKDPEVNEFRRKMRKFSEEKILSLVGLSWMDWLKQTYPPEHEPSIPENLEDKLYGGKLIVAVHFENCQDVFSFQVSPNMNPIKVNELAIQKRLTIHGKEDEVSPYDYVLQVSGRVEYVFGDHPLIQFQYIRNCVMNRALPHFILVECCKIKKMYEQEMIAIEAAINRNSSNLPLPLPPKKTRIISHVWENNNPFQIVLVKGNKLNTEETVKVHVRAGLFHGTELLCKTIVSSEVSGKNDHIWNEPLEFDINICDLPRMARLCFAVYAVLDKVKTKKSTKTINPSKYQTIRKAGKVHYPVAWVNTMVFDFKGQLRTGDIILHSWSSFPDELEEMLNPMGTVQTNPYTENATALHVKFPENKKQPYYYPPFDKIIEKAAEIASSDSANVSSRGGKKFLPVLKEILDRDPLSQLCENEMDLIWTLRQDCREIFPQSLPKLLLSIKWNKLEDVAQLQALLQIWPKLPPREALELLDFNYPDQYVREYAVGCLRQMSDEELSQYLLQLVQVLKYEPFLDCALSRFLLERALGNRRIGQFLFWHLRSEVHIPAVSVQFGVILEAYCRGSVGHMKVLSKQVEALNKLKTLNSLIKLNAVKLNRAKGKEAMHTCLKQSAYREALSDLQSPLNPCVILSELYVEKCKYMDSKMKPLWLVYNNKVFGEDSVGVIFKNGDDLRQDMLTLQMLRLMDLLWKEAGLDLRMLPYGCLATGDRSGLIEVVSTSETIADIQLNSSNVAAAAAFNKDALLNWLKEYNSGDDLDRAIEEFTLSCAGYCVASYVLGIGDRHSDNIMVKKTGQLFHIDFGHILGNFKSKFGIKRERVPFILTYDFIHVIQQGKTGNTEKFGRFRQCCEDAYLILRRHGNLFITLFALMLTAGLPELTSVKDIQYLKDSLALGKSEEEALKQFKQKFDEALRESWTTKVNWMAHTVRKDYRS
Sequence of PI3K-β (P27986 whole entry partner): as the sequence (P27986 whole entry partner) above
Sequence of PI3K-α (Homo sapiens (Human), UniProt P42336, K111N) (P42336 whole entry K111N, looked up): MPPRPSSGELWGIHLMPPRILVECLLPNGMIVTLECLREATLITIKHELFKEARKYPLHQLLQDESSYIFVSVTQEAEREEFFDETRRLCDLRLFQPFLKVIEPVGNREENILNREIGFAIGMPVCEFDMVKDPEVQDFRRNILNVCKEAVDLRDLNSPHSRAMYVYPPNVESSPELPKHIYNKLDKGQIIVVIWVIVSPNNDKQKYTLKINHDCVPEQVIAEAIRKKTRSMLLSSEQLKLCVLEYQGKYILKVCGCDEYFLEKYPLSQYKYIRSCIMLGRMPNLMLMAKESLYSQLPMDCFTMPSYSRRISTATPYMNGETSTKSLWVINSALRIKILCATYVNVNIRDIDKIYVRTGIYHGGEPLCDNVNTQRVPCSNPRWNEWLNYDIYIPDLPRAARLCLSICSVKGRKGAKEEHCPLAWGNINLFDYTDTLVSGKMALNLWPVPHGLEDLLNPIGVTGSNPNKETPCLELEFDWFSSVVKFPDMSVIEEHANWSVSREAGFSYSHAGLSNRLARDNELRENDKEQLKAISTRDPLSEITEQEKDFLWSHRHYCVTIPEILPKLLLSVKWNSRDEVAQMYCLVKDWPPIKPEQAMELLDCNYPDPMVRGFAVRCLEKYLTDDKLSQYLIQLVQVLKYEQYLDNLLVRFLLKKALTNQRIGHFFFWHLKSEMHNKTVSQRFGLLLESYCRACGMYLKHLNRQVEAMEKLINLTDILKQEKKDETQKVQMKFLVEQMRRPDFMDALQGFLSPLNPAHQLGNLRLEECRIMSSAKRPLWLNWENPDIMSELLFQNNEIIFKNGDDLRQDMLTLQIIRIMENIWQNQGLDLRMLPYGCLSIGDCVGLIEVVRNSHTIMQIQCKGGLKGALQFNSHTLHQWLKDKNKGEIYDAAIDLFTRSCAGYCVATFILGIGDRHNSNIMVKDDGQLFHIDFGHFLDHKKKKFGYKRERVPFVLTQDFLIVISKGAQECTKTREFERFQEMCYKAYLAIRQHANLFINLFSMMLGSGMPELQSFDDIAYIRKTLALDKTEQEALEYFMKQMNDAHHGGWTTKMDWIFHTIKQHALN
Sequence of PI3K-α (Homo sapiens (Human), UniProt P42336, K111N) (P27986 whole entry partner, looked up): as the sequence (P27986 whole entry partner) above
Sequence of PI3K-α (Homo sapiens (Human), UniProt P42336) (P42336 whole entry, looked up): as the sequence (P42336 whole entry K111N, looked up) above, with N111K counted along it
Sequence of PI3K-α (Homo sapiens (Human), UniProt P42336) (P27986 whole entry partner, looked up): as the sequence (P27986 whole entry partner) above

## NC1(C(=O)N[C@@H](CCO)c2ccc(Cl)cc2)CCN(c2ncnc3[nH]ccc23)CC1 [AZD5363, (S)-4-amino-N-(1-(4-chlorophenyl)-3-hydroxypropyl)-1-(7H-pyrrolo[2,3-d]pyrimidin-4-yl)piperidine-4-carboxamide, reference compound]
[1]; AZD5363 alone 100 mg/kg BID, 2 days on/5 days off, vs vehicle, FIG. 10
  tumour growth: partially inhibited tumour growth
[1]; AZD5363 alone 170 mg/kg BID, 2 days on/5 days off, vs vehicle, FIG. 9
  tumour growth: partially inhibited tumour growth

## C[C@@H](Nc1cc(F)cc(F)c1)c1cc(C(=O)N(C)C)cc2c(=O)cc(N3CCOCC3)oc12 [AZD8186, 8-((1R)-1-(3,5-difluorophenylamino)ethyl)-N,N-dimethyl-2-morpholino-4-oxo-4H-chromene-6-carboxamide, reference compound]
[2]
  tumour growth: partially inhibited tumour growth

## C[C@@H](O)CC(=O)N1CCC(c2nc(-c3cnc(N)c(-c4nnc(C(C)(C)C)o4)n3)n(C)n2)CC1 [Example 4, (3R)-1-[4-[5-[5-amino-6-(5-tert-butyl-1,3,4-oxadiazol-2-yl)pyrazin-2-yl]-1-methyl-1,2,4-triazol-3-yl]-1-piperidyl]-3-hydroxy-butan-1-one]
[3]
  IC50: > 30000 nM
[4]
  IC50: < 12 nM
[5]
  IC50: 2910 nM

## C[C@H](O)CC(=O)N1CCC(c2nc(-c3cnc(N)c(-c4nnc(C(C)(C)C)o4)n3)n(C)n2)CC1 [Example 5, (3S)-1-[4-[5-[5-amino-6-(5-tert-butyl-1,3,4-oxadiazol-2-yl)pyrazin-2-yl]-1-methyl-1,2,4-triazol-3-yl]-1-piperidyl]-3-hydroxy-butan-1-one]
[3]
  IC50: > 30000 nM
[4]
  IC50: 12 nM
[5]
  IC50: 3310 nM

## C[C@H](CO)C(=O)N1CCC(c2nc(-c3cnc(N)c(-c4nnc(C(C)(C)C)o4)n3)n(C)n2)CC1 [Example 6, (2R)-1-[4-[5-[5-amino-6-(5-tert-butyl-1,3,4-oxadiazol-2-yl)pyrazin-2-yl]-1-methyl-1,2,4-triazol-3-yl]-1-piperidyl]-3-hydroxy-2-methyl-propan-1-one]
[3]
  IC50: > 30000 nM
[4]
  IC50: < 12 nM
[5]
  IC50: 3420 nM

## Cn1nc(C2CCN(C(=O)C(C)(C)O)CC2)nc1-c1cnc(N)c(-c2nnc(C(C)(C)C)o2)n1 [Example 7, 1-[4-[5-[5-amino-6-(5-tert-butyl-1,3,4-oxadiazol-2-yl)pyrazin-2-yl]-1-methyl-1,2,4-triazol-3-yl]-1-piperidyl]-2-hydroxy-2-methyl-propan-1-one]
[6]
  IC50: 420 nM
[3]
  IC50: > 30000 nM
[4]
  IC50: 14 nM
[5]
  IC50: 6260 nM
[7]
  IC50: 37 nM

## Cn1nc(C2CCN(C(=O)CC(=O)O)CC2)nc1-c1cnc(N)c(-c2nnc(C(C)(C)C)o2)n1 [Example 8, 3-[4-[5-[5-amino-6-(5-tert-butyl-1,3,4-oxadiazol-2-yl)pyrazin-2-yl]-1-methyl-1,2,4-triazol-3-yl]-1-piperidyl]-3-oxo-propanoic acid]
[6]
  IC50: 590 nM
[3]
  IC50: > 30000 nM
[4]
  IC50: 12 nM
[5]
  IC50: 1520 nM
[7]
  IC50: 24 nM

## CCn1nc(C2CCN(C(=O)CC(=O)O)CC2)nc1-c1cnc(N)c(-c2nnc(C(C)(C)C)o2)n1 [Example 9, 3-[4-[5-[5-amino-6-(5-tert-butyl-1,3,4-oxadiazol-2-yl)pyrazin-2-yl]-1-ethyl-1,2,4-triazol-3-yl]-1-piperidyl]-3-oxo-propanoic acid]
[4]
  IC50: < 10 nM
[5]
  IC50: 640 nM

## CCn1nc(C2CCN(C(=O)[C@@H](O)CO)CC2)nc1-c1cnc(N)c(-c2nnc(C(C)(C)C)o2)n1 [Example 10, (2S)-1-[4-[5-[5-amino-6-(5-tert-butyl-1,3,4-oxadiazol-2-yl)pyrazin-2-yl]-1-ethyl-1,2,4-triazol-3-yl]-1-piperidyl]-2,3-dihydroxy-propan-1-one]
[6]
  IC50: 85 nM

## CCn1nc(C2CCN(C(=O)[C@H](O)CO)CC2)nc1-c1cnc(N)c(-c2nnc(C(C)(C)C)o2)n1 [Example 11, (2R)-1-[4-[5-[5-amino-6-(5-tert-butyl-1,3,4-oxadiazol-2-yl)pyrazin-2-yl]-1-ethyl-1,2,4-triazol-3-yl]-1-piperidyl]-2,3-dihydroxy-propan-1-one]
[6]
  IC50: 110 nM

## O=C(c1cc(Cc2n[nH]c(=O)c3ccccc23)ccc1F)N1CCN(C(=O)C2CC2)CC1 [olaparib, 4-[3-(4-cyclopropanecarbonyl-piperazine-1-carbonyl)-4-fluoro-benzyl]-2H-phthalazin-1-one, reference compound]
[8]
  tumour growth: minimal effect on tumour growth
[1]; olaparib alone 100 mg/kg QD every day, FIG. 11
  tumour growth: no significant effect on tumour growth
